From paper PMC5659136, “Peptide mimetics of immunoglobulin A (IgA) and FcαRI block IgA‐induced human neutrophil activation and migration” (European Journal of Immunology, 2017)
Positions of bridges follow the written chain, without caps; N, C: chain ends. No end group written: not given here.

How the values were obtained:
[1] = system: IgA binding to FcαRI (on neutrophils); assay: Ligand binding assay: neutrophil binding to IgA-coated plates; format: cell-based; settings: peptide 1 μg/mL, pre-incubation 20 min, 4°C, calcein labeled human neutrophils 2.5 × 10^5 cells/well, 37°C, fluorimeter, three independent experiments in triplicates, Fig. 1
Description: Figure 1 Peptide mimetics inhibit IgA binding to FcαRI. Percentage of ligand binding between IgA and FcαRI (on neutrophils), either in the presence or absence of peptide mimetics. Fluorescently labelled human neutrophils, isolated from blood, were added to IgA‐coated plates, and the number of neutrophils attaching to the plate was measured with a fluorimeter. IgA binding to FcαRI was normalized to 100% (indicated with dotted line). Neutrophils or plates were pre‐incubated with either linear peptides (A) or cyclic CLIPS‐peptides (B) mimicking FcαRI‐sequences (white bars) or IgA‐sequences (black bars). Data are representative of three independent experiments, performed in triplicates. Mean is shown, error bars refer to SD (n = 3). Statistical analysis: ANOVA*p< 0.05, **p < 0.01.
Neutrophils were isolated from heparinized peripheral human blood from healthy donors after informed consent was given, using standard Lymphoprep (Axis‐shield, Dundee, Scotland) density gradient centrifugation. […]
Plates (Nunc‐ImmunoMaxiSorp™, Roskilde, Denmark) were coated with IgA, or BSA (as control) (10 μg/mL, 3 h, 37°C), washed and pre‐incubated with FcαRI‐peptides (1 μg/mL, 20 min, 4°C). […] Attached cells were lysed and fluorescence of supernatant was measured with a fluorimeter (485 nm excitation/520 nm emission filters; Fluostar Galaxy, BMG Labtechnologies, Offenburg, Germany), as measure of binding. […]

neutrophils [2] = assay: In vitro neutrophil migration to IgA-coated beads; format: cell-based, human; settings: fluorimeter; for block of IgA-induced neutrophil migration (in words): oxidated or small cyclic peptides, 3 independent experiments in triplicates, Supporting Information Fig. 2
Description: Figure 3 Peptide mimetics block IgA‐induced migration in vitro. Percentage of migration of fluorescently labelled neutrophils to IgA‐coated beads, either in the presence or absence of peptide mimetics. The number of migrated neutrophils was determined with a fluorimeter. Neutrophil migration to IgA was normalized to 100% (dotted line). Neutrophils or beads were pre‐incubated with (A) linear or (B) cyclic peptides mimicking FcαRI‐sequences (white bars) or IgA‐sequences (black bars). Data are representative of three independent experiments, performed in triplicates. Mean ± SD is shown. Statistical analysis: ANOVA *p< 0.05, **p < 0.01.
(§1) In vitro migration assays were performed as previously described 4. All experiments were performed in triplo. Migration towards IL‐8 (30 ng/mL) was measured after pre‐incubating neutrophils with peptides (1 μg/mL) or anti‐IL‐8 blocking antibody (10 μg/mL, Pharmingen).
Supporting Information Figure 2 […]
Percentage of migration of fluorescently labelled neutrophil to IgA-coated beads, either in the presence or absence of peptide mimetics. The number of migrated neutrophils was determined with a fluorimeter. Neutrophil migration to IgA was normalized to 100% (dotted line). Neutrophils or beads were pre-incubated with (A) oxidated or (B) small cyclic peptides mimicking FcαRI-sequences (white bars) or IgA-sequences (black bars). Data are representative of 3 independent experiments, performed in triplicates. Mean ± SD of one representative experiment is shown. Statistical analysis: ANOVA

neutrophils [3] = assay: IL-8 induced chemotaxis of neutrophils; format: cell-based, human; settings: IL-8 30 ng/mL; neutrophils pre-incubated with peptides 1 μg/mL; fluorimeter; three times in triplo; Supporting Information Fig. 3
Description: as §1
Supporting Information Figure 3 […]
medium IL-8anti-IL-8IgA1-linFcĮRI1-linFcĮRI9-ox
Number of fluorescently labelled neutrophils which migrated to IL-8 in a chemotaxis chamber, either in the presence or absence of peptide mimetics. The number of migrated neutrophils was determined with a fluorimeter. Neutrophil migration to IL-8 is indicated with a dotted line.
Medium and blocking IL-8 antibody (anti-IL-8) were used as controls. Experiments were performed three times in triplo. Mean ± SD of one representative experiments in triplo is shown.
Statistical analysis: ANOVA

neutrophils [4] = assay: Ex vivo human skin migration assay (IgA-coated beads injected in the dermis); format: cell-based; settings: full thickness human skin grafts; peptide 1 μg/mL, pre-incubation 20 min, 4°C; incubated overnight (24 h) at 37°C; fluorescence microscopy; three independent experiments in duplicate; Fig. 4
From the text: To mimic blocking of neutrophil migration toward aberrant IgA‐antigen complexes in the skin, an ex vivo migration assay was established. […] No influx toward BSA‐coated beads was observed, whereas massive influx of neutrophils toward the injected IgA‐coated beads was observed (Fig 4A).
Figure 4 Peptide mimetics block neutrophil migration and penetrate the dermis in an ex vivo human skin model. Migration of green‐fluorescent neutrophils to BSA‐ (left panel) or IgA‐ (right panel) coated beads (indicated with circles) in the dermis of ex vivo skin explants (A). Migration of green‐fluorescent neutrophils to IgA‐coated beads (indicated with circles) after pre‐incubation with non‐blocking peptide FcαRI9‐ox (B), linear peptides (C) or cyclic CLIPS‐peptides (D). Images are representative of three independent experiments, performed in duplicate. Scale bar = 250 μm. Images are 10× magnified.
For ex vivo human skin migration assays, full thickness mammary skin grafts (epidermis and dermis) were placed in an ex vivo tissue incubation chamber with the dermis face up 6, 49. IgA‐coated beads were pre‐incubated with FcαRI‐peptides (1 μg/mL, 20 min, 4°C) and injected intracutaneously via the dermis. BSA‐coated beads were used for control. Next, PKH‐67 labeled neutrophils (4 × 10^6 cells/well) were added on the dermis. Alternatively, IgA‐coated beads were injected intracutaneously and PKH‐67 labeled neutrophils (4 × 10^6 cells/well) that were pre‐incubated with IgA‐peptides (1 μg/mL, 20 min, 4°C) were added onto the dermis. Cells were supplemented with IFN‐γ to prevent early apoptosis (300 units/mL; Boehringer Ingelheim, Ingelheim am Rhein, Germany). Skin was incubated overnight at 37°C, after which biopsies of the injected skin were taken and snap frozen. Cryosections of 6 μm were analysed with a Nikon eclipse e800 (Nikon instruments Europe BV, Amsterdam, The Netherlands).

Substance: SSMVGHEALPLAFTQKT [IgA1‐lin]
- blocking of neutrophil binding to IgA-coated wells [1]: approximately 50%
- block of neutrophil migration to IgA-coated beads (neutrophils [2]; neutrophils or beads pre-incubated with peptides, three independent experiments in triplicates, Fig. 3): 60–80%
- effect on IL-8 induced chemotaxis (neutrophils [3]): do not block
- neutrophil migration to IgA-coated beads in ex vivo human skin (neutrophils [4]): completely blocked

Substance: SCEALPLAFTCKT (also: sidechain bridge or staple (positions not given here)) [IgA3‐CLIPS]
- block of IgA-induced neutrophil migration (in words) (neutrophils [2]): do not block

Substance: CEALPLAFTCKT (also: sidechain bridge or staple (positions not given here)) [IgA2‐CLIPS]
- block of IgA-induced neutrophil migration (in words) (neutrophils [2]): do not block

Substance: RYQAQCRIGHYRFC (disulfide 6-14 (inferred)) [FcαRI6‐ox]
- block of IgA-induced neutrophil migration (in words) (neutrophils [2]): do not block

Substance: SSCVGHEALPLAFTCKT (also: sidechain bridge or staple (positions not given here)) [IgA7‐CLIPS]
- neutrophil migration to IgA-coated beads in ex vivo human skin (neutrophils [4]): fully abrogated

Substance: SSCVGHEALPLAFTCKT (disulfide 3-15 (inferred)) [IgA7‐ox]
- block of IgA-induced neutrophil migration (in words) (neutrophils [2]): do not block

Substance: GRYQAQCRIGHYRFCYSD (disulfide 7-15 (inferred)) [FcαRI9‐ox]
- block of IgA-induced neutrophil migration (in words) (neutrophils [2]): do not block
- effect on IL-8 induced chemotaxis (neutrophils [3]): do not block
- neutrophil migration to IgA-coated beads in ex vivo human skin (neutrophils [4]): did not inhibit

Substance: SSMCGHEALPLAFCQKT (disulfide 4-14 (inferred)) [IgA6‐ox]
- block of IgA-induced neutrophil migration (in words) (neutrophils [2]): do not block

Substance: CHYRFRC (also: sidechain bridge or staple (positions not given here)) [FcαRI3‐CLIPS]
- block of IgA-induced neutrophil migration (in words) (neutrophils [2]): do not block

Substance: YQACHYRFRC (also: sidechain bridge or staple (positions not given here)) [FcαRI5‐CLIPS]
- block of IgA-induced neutrophil migration (in words) (neutrophils [2]): do not block
